According to patent US20130116263A1, “PAK INHIBITORS FOR THE TREATMENT OF CELL PROLIFERATIVE DISORDERS” (AFRAXIS, INC., priority 2011, published 2013):

Tests used:
Assay type in all cases: cell-based
p-PAK1(S144) = experiment: In vitro cellular HTRF assay for p-PAK1(S144); details: cell line RT4-D6P2T, read-out: pPAK1(S144)
Source text: (§1) Some of the compounds for treatment of cancer are subject to in vitro cellular HTRF assay for p-PAK1(S144) and p-MEK1(S298). The cell line is RT4-D6P2T.

p-MEK1(S298) = experiment: In vitro cellular HTRF assay for p-MEK1(S298); details: cell line RT4-D6P2T, read-out: pMEK1(S298)
Source text: as §1

NCI-H520 = experiment: Growth inhibition in cancer cell lines (CellTiter-Glo), NCI-H520; details: NCI-H520, 72 hours exposure
Source text: (§2) Methodology: 60 cell lines (CCRF-CEM, HL-60(TB), K-562, MOLT-4, RPMI-8226, SR, A549, EKVX, HOP-62, HOP-92, NCI-H226, NCI-H23, NCI-H322M, NCI-H460, NCI-H522, COLO 205, HCC-2998, HCT-116, HCT-15, HT29, KM12, SW-620, SF-268, SF-295, SF-539, SNB-19, SNB-75, U251, LOX IMV1, MALME-3M, M14, SK-MEL-2, SK− MEL-28, SK-MEL-5, UACC-257, UACC-62, IGR-OV 1, OVCAR-3, OVCAR-4, OVCAR-5, OVCAR-8, SK-OV-3, 786-0, A498, ACHN, CAKI-1, RXF 393, SN12C, TK-10, UO-31, PC-3, DU-145, MCF7, NCI/ADR-RES, MDA-MB-231, HS 578T, MDA-MB-435, MDA-MB-468, BT-549, and T-47D) are grown in RPMI-1640 medium with 10% FBS. Stock solutions of a test compound are prepared in DMSO. Concentrations of from about 0.001 μM to about 20 μM of each compound in RPM-1640 media are prepared. The test compound is added to wells containing 50 μL of cells and medium. A CellTiter-Glo (CTG) assay is carried out on the 0 hr plate to obtain a 0 hr count. Cells are exposed to the test compound for 72 hours. Following the exposure period, the plates are assayed using CTG. Luminescence is recorded on Synergy.
(§3) As a non-limiting example, Compound 30 as described herein was tested for growth inhibition against various cancer cell lines.

SK-MES-1 = experiment: Growth inhibition in cancer cell lines (CellTiter-Glo), SK-MES-1; details: SK-MES-1, 72 hours exposure
SKOV-3 = experiment: Growth inhibition in cancer cell lines (CellTiter-Glo), SKOV-3; details: Homo sapiens, SK-OV-3; SKOV-3, 72 hours exposure
Source text: as §2, §3

OVCAR-3 = experiment: Growth inhibition in cancer cell lines (CellTiter-Glo), OVCAR-3; details: OVCAR-3, 72 hours exposure
Source text: as §2, §3

EBC-1 = experiment: Growth inhibition in cancer cell lines (CellTiter-Glo), EBC-1; details: EBC-1, 72 hours exposure
IGROV-1 = experiment: Growth inhibition in cancer cell lines (CellTiter-Glo), IGROV-1; details: IGROV-1, 72 hours exposure
Source text: as §2, §3

OVCAR-4 = experiment: Growth inhibition in cancer cell lines (CellTiter-Glo), OVCAR-4; details: OVCAR-4, 72 hours exposure
Source text: as §2, §3

| SMILES | IC50 (p-PAK1(S144)) [nM] | IC50 (p-MEK1(S298)) [nM] | other results |
| --- | --- | --- | --- |
| CCn1c(=O)c(-c2ccc(-c3cccc(C)n3)cc2Cl)cc2cnc(N[C@H]3CC[C@H](CN(C)C)CC3)nc21 | 500 to 5000 | 500 to 5000 |  |
| CCn1c(=O)c(-c2ccc(-c3cncc(C)n3)cc2Cl)cc2cnc(NCCC3CCN(C)CC3)nc21 [drawing 390] | 50 to 500 | 50 to 500 |  |
| Cc1nc(-c2ccc(-c3cc4cnc(NC5CCOCC5)nc4n(Cc4cccc(OCCN)c4)c3=O)c(Cl)c2)no1 [drawing 380] | 500 to 5000 | 500 to 5000 |  |
| CCn1c(=O)c(-c2ccc(-c3cncc(C)n3)cc2Cl)cc2cnc(N[C@H]3CCOC3)nc21 [drawing 389] | 500 to 5000 | > 5000 |  |
| Cc1cncc(-c2ccc(-c3cc4cnc(N[C@@H]5CCOC5)nc4n(CCCN)c3=O)c(Cl)c2)n1 [drawing 384] | 500 to 5000 | 500 to 5000 |  |
| CCn1c(=O)c(-c2ccc(-c3nccnc3C)cc2Cl)cc2cnc(NC3CCOC(C)(C)C3)nc21 (stereo not drawn) [Compound 30] |  |  | GI50 (NCI-H520; Homo sapiens): 6 µM; Maximum Inhibition (NCI-H520): −17%; GI50 (SK-MES-1; Homo sapiens): 3.8 µM; Maximum Inhibition (SK-MES-1): −14%; GI50 (SKOV-3): 3.8 µM; GI50 (OVCAR-3; Homo sapiens): 3.1 µM; Maximum Inhibition (OVCAR-3): −20%; Maximum Inhibition (EBC-1): −13%; GI50 (EBC-1; Homo sapiens): 3.5 µM; GI50 (IGROV-1; Homo sapiens): 330 nM; Maximum Inhibition (IGROV-1): −50%; GI50 (OVCAR-4; Homo sapiens): 2600 nM; Maximum Inhibition (OVCAR-4): −50% |
| Cc1nc(-c2ccc(-c3cc4cnc(NC5CCOCC5)nc4n(Cc4cccc(CCN)c4)c3=O)c(Cl)c2)no1 [drawing 395] | 50 to 500 | 50 to 500 |  |
| CCn1c(=O)c(-c2ccc(-c3cncc(C)n3)cc2Cl)cc2cnc(NCC3CCC(N)CC3)nc21 (stereo not drawn) [drawing 383] | 50 to 500 | 500 to 5000 |  |
| CCn1c(=O)c(-c2ccc(-c3cncc(C)n3)cc2Cl)cc2cnc(NC3CCOCC3)nc21 [drawing 391] | 50 to 500 | 500 to 5000 |  |
| Cc1nc(-c2ccc(-c3cc4cnc(NC5CCOCC5)nc4n(CC4CCNCC4)c3=O)c(Cl)c2)no1 [drawing 396] | 50 to 500 | 500 to 5000 |  |
| Cc1nc(-c2ccc(-c3cc4cnc(NC5CCOCC5)nc4n(CC(=O)NCc4ccncc4)c3=O)c(Cl)c2)no1 [drawing 388] | 500 to 5000 | > 5000 |  |
| CCn1c(=O)c(-c2ccc(-c3cccnc3F)cc2Cl)cc2cnc(NC3CCOCC3)nc21 [drawing 392] | 500 to 5000 | 500 to 5000 |  |
| CCn1c(=O)c(-c2ccc(-c3nccnc3C)cc2Cl)cc2cnc(NC3CCOC(C)(C)C3)nc21 (stereo not drawn) [drawing 385] | 500 to 5000 | 500 to 5000 |  |
| Cc1nc(-c2ccc(-c3cc4cnc(NC5CCOCC5)nc4n(Cc4ccc(CN)cc4)c3=O)c(Cl)c2)no1 [drawing 397] | 50 to 500 | 500 to 5000 |  |
